Test results published in ChEMBL document CHEMBL5537112, “Emerging opportunities to treat idiopathic pulmonary fibrosis: Design, discovery, and optimizations of small-molecule drugs targeting fibrogenic pathways” (Eur J Med Chem, 2023).
Values belong to the compound of their own block, whether it stands above or below them.

Key:
fMet-Leu-Phe receptor = molecular target: T1, fMet-Leu-Phe receptor (Homo sapiens, UniProt P21462); assay: Inhibition of human FPR expressed in human U-937 cells by fluorescence based ligand binding assay; assay type: cell-based
T1 sequence (P21462 whole entry): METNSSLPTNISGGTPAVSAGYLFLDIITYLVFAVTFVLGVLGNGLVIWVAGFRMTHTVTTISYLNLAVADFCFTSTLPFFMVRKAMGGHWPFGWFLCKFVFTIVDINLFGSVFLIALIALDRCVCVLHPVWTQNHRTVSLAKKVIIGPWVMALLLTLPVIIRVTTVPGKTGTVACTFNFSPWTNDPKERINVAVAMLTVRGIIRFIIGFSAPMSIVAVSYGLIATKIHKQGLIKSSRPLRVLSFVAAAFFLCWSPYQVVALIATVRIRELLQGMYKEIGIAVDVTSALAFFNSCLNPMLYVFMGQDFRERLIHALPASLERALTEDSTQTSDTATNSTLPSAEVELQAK

[1] = molecular target: Vascular endothelial growth factor receptor 2 (Homo sapiens, UniProt P35968); assay: Inhibition of VEGFR2 (unknown origin)
[2] = molecular target: Phosphatidylinositol 4,5-bisphosphate 3-kinase catalytic subunit alpha isoform (Homo sapiens, UniProt P42336); assay: Inhibition of PI3Kalpha (unknown origin) by kinase profiling assay
[3] = molecular target: T2, Type-1 angiotensin II receptor (Homo sapiens, UniProt P30556); assay: Binding affinity to AT1R (unknown origin) assessed as inhibition constant
T2 sequence (P30556 whole entry): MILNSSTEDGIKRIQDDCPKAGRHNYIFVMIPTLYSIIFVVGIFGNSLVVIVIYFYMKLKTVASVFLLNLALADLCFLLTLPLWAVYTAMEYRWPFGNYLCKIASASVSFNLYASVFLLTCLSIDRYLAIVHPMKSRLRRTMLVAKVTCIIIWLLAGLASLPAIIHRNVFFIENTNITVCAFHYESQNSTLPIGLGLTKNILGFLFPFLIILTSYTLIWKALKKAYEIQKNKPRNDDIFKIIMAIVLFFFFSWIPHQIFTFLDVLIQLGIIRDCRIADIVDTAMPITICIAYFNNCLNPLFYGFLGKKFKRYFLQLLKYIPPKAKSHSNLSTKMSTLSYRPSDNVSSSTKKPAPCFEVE

[4] = Oral bioavailability in rat; assay type: ADME, organism-based; details: in vivo
[5] = Clearance in rat at 5 mg/kg, iv; assay type: ADME, organism-based; details: in vivo
[6] = molecular target: Sphingosine 1-phosphate receptor 2 (Homo sapiens, UniProt O95136); assay: Agonist activity at S1P2 (unknown origin) expressed in CHO cells assessed as Ca2+ activation; assay type: functional, cell-based
[7] = molecular target: T3, Platelet-derived growth factor receptor beta (Homo sapiens, UniProt P09619); assay: Inhibition of PDGFRbeta (unknown origin) by DiscoverX KINOMEscan assay
in vivo = details: rat, po, 5 mg/kg
Description: Half life in rat at 5 mg/kg, po

[8] = Clearance in rat at 1 mg/kg, iv; assay type: ADME, organism-based; details: in vivo
[9] = Oral bioavailability in rat at 5 mg/kg; assay type: ADME, organism-based; details: in vivo
[10] = Half life in rat; assay type: ADME; details: in vivo
[11] = molecular target: T3, Platelet-derived growth factor receptor beta; assay: Inhibition of PDGFRbeta (unknown origin) by enzymatic assay
[12] = Metabolic stability in Sprague-Dawley rat assessed as half life; assay type: ADME
[13] = molecular target: T3, Platelet-derived growth factor receptor beta; assay: Inhibition of glutathione S-transferase fused PDGFbetaR (unknown origin) in 3T3 cells; assay type: cell-based
[14] = AUC in Sprague-Dawley rat at 10 mg/kg, po; assay type: ADME, organism-based; details: in vivo
[15] = molecular target: Lysophosphatidic acid receptor 1 (Homo sapiens, UniProt Q92633); assay: Antagonist activity at human LPA1 receptor expressed in CHO cells assessed as inhibition of LPA-induced calcium mobilization pretreated for 15 mins followed by LPA stimulation by FLIPR analysis; assay type: functional, cell-based
[16] = molecular target: Voltage-gated inwardly rectifying potassium channel KCNH2 (Homo sapiens, UniProt Q12809); assay: Inhibition of hERG

T3 sequence (P09619 whole entry): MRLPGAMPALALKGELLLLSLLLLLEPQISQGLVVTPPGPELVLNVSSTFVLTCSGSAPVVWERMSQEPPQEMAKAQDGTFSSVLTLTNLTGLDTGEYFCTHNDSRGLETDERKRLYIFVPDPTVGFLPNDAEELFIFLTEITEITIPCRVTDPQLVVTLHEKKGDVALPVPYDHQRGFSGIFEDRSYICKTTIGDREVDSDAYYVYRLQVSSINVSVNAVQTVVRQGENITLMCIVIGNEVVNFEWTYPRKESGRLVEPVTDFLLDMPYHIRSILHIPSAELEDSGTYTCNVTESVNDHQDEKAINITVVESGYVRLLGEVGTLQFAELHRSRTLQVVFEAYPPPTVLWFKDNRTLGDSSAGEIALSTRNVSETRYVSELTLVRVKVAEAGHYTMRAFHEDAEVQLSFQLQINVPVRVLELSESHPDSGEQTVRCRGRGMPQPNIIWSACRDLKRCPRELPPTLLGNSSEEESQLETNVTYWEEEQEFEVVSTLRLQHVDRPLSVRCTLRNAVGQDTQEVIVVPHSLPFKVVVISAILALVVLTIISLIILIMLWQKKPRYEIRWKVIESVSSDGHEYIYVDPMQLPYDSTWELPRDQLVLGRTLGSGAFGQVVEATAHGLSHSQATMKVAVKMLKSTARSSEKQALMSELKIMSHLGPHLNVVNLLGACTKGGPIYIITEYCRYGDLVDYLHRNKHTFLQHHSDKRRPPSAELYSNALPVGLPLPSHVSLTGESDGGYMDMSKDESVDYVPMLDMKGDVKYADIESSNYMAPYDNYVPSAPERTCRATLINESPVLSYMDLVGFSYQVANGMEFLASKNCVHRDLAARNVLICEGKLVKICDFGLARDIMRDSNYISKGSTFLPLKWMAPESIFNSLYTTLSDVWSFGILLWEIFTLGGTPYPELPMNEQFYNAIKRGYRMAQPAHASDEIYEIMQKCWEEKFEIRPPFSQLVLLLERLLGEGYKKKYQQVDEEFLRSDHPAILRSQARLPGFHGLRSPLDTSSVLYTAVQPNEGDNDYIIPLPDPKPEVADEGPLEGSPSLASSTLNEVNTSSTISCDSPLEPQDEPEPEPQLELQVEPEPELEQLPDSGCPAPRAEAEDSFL
Phosphatidylinositol 4,5-bisphosphate 3-kinase catalytic subunit alpha isoform, sequence (P42336 whole entry, canonical isoform): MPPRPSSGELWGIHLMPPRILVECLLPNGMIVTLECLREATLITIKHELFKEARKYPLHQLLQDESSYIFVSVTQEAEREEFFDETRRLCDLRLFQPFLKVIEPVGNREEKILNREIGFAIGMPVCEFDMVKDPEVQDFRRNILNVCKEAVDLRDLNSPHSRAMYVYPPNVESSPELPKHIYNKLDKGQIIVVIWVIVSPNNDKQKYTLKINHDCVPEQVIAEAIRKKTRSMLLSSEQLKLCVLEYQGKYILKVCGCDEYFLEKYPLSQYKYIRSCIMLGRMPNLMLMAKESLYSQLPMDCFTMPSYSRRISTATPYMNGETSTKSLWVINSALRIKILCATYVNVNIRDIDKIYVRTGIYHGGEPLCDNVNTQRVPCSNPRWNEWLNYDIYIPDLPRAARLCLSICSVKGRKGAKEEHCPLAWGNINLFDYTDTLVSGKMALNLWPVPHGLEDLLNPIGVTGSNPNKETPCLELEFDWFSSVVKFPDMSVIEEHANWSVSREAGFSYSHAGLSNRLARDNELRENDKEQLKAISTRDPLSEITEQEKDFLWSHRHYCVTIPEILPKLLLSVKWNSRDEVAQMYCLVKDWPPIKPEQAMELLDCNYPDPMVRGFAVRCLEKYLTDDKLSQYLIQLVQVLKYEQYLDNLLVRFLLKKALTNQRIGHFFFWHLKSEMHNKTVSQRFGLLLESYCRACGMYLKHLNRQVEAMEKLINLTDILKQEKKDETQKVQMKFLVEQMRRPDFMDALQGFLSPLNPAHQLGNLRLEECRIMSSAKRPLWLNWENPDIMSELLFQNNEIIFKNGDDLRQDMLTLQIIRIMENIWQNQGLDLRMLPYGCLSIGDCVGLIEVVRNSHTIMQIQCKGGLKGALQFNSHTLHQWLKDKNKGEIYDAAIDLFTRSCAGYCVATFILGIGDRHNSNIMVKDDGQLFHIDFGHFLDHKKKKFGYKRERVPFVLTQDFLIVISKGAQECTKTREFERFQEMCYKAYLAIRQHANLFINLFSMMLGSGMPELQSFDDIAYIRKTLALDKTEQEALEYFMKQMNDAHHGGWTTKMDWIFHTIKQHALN
Vascular endothelial growth factor receptor 2, sequence (P35968 whole entry, canonical isoform): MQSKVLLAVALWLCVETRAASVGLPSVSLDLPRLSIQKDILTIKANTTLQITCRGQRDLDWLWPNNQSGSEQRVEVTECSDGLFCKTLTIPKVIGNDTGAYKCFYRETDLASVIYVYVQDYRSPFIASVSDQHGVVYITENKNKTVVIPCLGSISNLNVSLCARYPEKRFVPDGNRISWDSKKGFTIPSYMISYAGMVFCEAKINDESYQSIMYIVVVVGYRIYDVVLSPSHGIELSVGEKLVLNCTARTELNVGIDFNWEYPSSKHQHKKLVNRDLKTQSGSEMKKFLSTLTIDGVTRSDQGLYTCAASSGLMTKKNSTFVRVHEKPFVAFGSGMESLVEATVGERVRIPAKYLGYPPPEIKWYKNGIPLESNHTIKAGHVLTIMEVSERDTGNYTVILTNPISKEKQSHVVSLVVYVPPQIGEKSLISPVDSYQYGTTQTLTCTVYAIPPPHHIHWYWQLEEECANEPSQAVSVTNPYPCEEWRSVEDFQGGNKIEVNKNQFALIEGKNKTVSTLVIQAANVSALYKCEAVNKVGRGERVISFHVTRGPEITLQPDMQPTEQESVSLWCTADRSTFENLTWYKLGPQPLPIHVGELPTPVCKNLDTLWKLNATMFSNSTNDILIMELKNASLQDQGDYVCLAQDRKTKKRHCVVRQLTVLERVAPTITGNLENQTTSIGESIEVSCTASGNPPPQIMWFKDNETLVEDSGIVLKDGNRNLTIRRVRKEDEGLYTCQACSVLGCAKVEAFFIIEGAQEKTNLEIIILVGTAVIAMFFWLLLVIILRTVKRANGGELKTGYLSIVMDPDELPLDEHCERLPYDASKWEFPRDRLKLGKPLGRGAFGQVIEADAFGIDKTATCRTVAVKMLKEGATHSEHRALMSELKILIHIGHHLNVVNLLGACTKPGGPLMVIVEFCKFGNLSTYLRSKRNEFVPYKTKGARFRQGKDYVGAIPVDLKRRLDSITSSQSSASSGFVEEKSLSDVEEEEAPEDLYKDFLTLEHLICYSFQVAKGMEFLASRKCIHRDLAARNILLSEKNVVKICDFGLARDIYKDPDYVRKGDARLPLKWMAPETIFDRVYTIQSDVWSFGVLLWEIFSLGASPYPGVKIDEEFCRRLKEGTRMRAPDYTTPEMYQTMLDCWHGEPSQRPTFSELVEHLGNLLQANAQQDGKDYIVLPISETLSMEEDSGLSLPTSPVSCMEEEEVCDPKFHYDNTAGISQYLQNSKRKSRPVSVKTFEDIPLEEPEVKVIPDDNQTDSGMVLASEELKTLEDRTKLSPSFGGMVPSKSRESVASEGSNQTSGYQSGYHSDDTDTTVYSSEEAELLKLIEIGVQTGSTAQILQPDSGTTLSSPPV
Lysophosphatidic acid receptor 1, sequence (Q92633 whole entry): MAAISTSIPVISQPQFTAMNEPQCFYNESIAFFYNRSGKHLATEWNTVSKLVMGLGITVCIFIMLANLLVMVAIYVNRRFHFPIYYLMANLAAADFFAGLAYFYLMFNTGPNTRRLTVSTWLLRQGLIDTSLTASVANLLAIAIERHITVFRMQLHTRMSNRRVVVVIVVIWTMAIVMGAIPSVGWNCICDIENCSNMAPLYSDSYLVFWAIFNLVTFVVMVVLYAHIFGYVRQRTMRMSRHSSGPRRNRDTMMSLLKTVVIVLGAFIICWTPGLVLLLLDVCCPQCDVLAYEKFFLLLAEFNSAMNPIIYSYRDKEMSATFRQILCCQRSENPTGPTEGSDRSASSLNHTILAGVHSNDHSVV
Sphingosine 1-phosphate receptor 2, sequence (O95136 whole entry): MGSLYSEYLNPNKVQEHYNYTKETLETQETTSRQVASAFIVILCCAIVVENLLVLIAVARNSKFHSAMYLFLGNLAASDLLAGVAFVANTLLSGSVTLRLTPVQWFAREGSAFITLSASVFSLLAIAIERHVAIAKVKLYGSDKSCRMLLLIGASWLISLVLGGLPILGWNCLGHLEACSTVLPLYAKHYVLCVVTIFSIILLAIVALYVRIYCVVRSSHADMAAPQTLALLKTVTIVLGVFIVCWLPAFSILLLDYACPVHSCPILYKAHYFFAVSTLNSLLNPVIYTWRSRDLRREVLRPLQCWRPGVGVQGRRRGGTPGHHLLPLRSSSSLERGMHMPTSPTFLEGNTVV

SMILES: Cc1c(-c2ccccc2)nc2ccc(Br)cc2c1C(=O)NC[C@H](CC(=O)O)c1ccccc1Cl
IC50 (fMet-Leu-Phe receptor): 32 nM

SMILES: COc1cc2c(Oc3ccc4[nH]c(C)cc4c3F)ccnc2cc1OCC1(N)CC1
IC50 [1]: < 1 nM

SMILES: O=S(=O)(Nc1cncc(-c2ccc3nccc(-c4ccncc4)c3c2)c1)c1ccccc1F
IC50 [2]: 0.1 nM

SMILES: CCCCOC(=O)NS(=O)(=O)c1sc(CC(C)C)cc1-c1ccc(Cn2c(CC)nc3c(C)cc(C)nc32)cc1
Ki [3]: 3.9 nM

SMILES: CCc1nc2c(C)cc(N3CCN(CC(=O)N4CC(O)C4)CC3)cn2c1N(C)c1nc(-c2ccc(F)cc2)c(C#N)s1 [ZIRITAXESTAT]
bioavailability [4]: 34% | clearance [5]: 11.5 mL/min/kg

SMILES: Cc1cc(NNC(=O)Nc2cc(Cl)nc(Cl)c2)ncc1-c1cn(C)nc1C
IC50 [6]: > 1400 nM

SMILES: O=C1NC(=O)C(Cc2ccc3nccc(-c4ccncc4)c3c2)S1 (stereo not given)
IC50 [2]: 2 nM

SMILES: COC(=O)c1ccc2c(c1)NC(=O)/C2=C(\Nc1ccc2c(c1)CCN2C(=O)CN1CCOCC1)c1ccccc1
half-life [10]: 4.8 h | IC50 [11]: 25 nM | half-life [12]: 4.8 h | IC50 [1]: 110 nM | IC50 [13]: 100 nM | AUC [14]: 6406 h/ng/mL

SMILES: COC(=O)c1ccc2c(c1)NC(=O)/C2=C(\Nc1ccc(N(C)C(=O)CN2CCN(C)CC2)cc1)c1ccccc1 [NINTEDANIB]
IC50 [16]: 2600 nM

Other lines, results leading:

IC50 [7]: 7.06 nM
SMILES: CNC(=O)c1cc2c(Oc3ccc(NC(=S)NC(=O)Cc4ccccc4)cc3F)ccnc2cc1OC [TAS-115]

half-life (in vivo): 1.9 h | clearance [8]: 15 mL/min/kg | bioavailability [9]: > 100%
SMILES: O=c1nc(OC[C@@H]2COCCO2)cc2n1CCc1cc(C#CC3CC3)ccc1-2 [GLPG-1205]

EC50 [15]: 6.7 nM
SMILES: Cc1noc(-c2ccc(-c3ccc(C4(C(=O)O)CC4)cc3)cc2)c1NC(=O)O[C@H](C)c1ccccc1 [BMS-986020]
